{"source": "patent US20240197712A1", "about": "“TGF-BETA INHIBITION FOR IMMUNODEFICIENCY VIRUS REACTIVATION FROM LATENCY, ENHANCEMENT OF IMMUNODEFICIENCY VIRUS-SPECIFIC RESPONSES AND IMMUNODEFICIENCY VIRUS CURE” (Northwestern University, priority 2022, published 2024)", "key": {"U1 cells": {"system": "U1 cells", "assay": "PMA-induced HIV reactivation in U1 cells, intracellular p24 staining", "assay_type": "cell-based", "protocol": "ACH2 cells and U1 cells were obtained through the NIH HIV Reagent Program, Division of AIDS, NIAID, NIH (contributed by Dr. Thomas Folks). Cells ([…]) were cultured in triplicates in RPMI with 10% FBS and Pen/Strep in presence of TGF-β1 (10 ng/ml R&D systems), TGF-β1 and galunisertib (1 μM MedChemExpress), galunisertib alone or mock treated. In the HIV latency reactivation conditions, PMA (Phorbol 12-myristate 13-acetate, SigmaAldrich) was added at 100 ng/ml together with galunisertib or TGF-β1. After 18 hrs, cells were stained intracellularly for p24 using the KC57 antibody (NIH HIV Reagent Program) as previously described (74)."}, "[1]": {"assay": "Galunisertib plasma pharmacokinetics by LCMS", "assay_type": "in vivo, rhesus macaques", "protocol": "Eight naïve macaques (FIG. 9) were used to collect plasma and PBMC for PK/PD studies. 4 macaques received galunisertib (2.5 mg/kg, n=2 or 5 mg/kg, n=2) once and blood was collected at 1 hr, 3 hr and 6 hrs, 24 hrs and 48 hrs. 4 macaques received galunisertib (2.5 mg/kg, n=2 or 5 mg/kg, n=2) twice daily for 9 days and samples were collected 1 hr, 3 hr and 8 hrs after administration on day 1 and on day 9 right before and 1 hr and 3 and 6 hrs after the last administration. Plasma concentrations of galunisertib were measured by IMSERC (Integrated Molecular Structure Education and Research Center) utilizing liquid chromatography mass spectrometry (Shimadzu Kyoto, Japan ultra-high performance liquid chromatography—UHPLC—system and SCIEX Framingham, MA Qtrap 6500+ triple quadrupole mass spectrometer). All standard, quality controls (QC) and experimental samples were prepared and ran in duplicate using 20 μL of plasma (spiked with galunisertib if a standard or QC) adding 15 μL of 8% phosphoric acid solution, 200 μL of acetonitrile (to crash plasma proteins) spiked with tramadol as an internal standard. The standard curve was prepared as a 10-point curve from 1.0 to 1,000 ng/ml with three QCs. […] All samples and standards were processed in duplicate with the average area under the curve (AUC) being used for quantitation reporting. […] The resulting limit of quantitation (LOQ) was 1.0 ng/ml."}, "SIV-env": {"system": "SIV-env", "assay": "Anti-envelope antibody titers (ELISA)", "assay_type": "in vivo, rhesus macaques", "conditions": "in 3 of the 7 macaques", "protocol": "96-well plates were coated with the SIV gp130 Recombinant protein 595 (AIDS reagents program, Division of AIDS, NIAID, NIH at 1 μg/ml in coating carbonate buffer 2 hours at room temperature (RT). After washing the plates 4 times with washing buffer, the plates were incubated in blocking buffer (2% BSA in PBS) overnight. Plates were washed and dilutions of test sera or control sera were added to the plate starting at 1:50. Sera were incubated at 37° C. for 30′ and plate washed and detected with anti-Rhesus IgG HRP (NHPRR) 30′ at 37° C. After washing and substrate incubation at RT for 30′ plates were read at 450/650 nm."}, "[2]": {"assay": "Plasma cytokines and chemokines (MSD 24-plex)", "assay_type": "in vivo, rhesus macaques", "protocol": "Cytokines in plasma (at 1:2 dilution) were measured using the NHP Cytokine 24-Plex kit by Meso Scale Diagnostics (MSD) according to manufacturer instructions. Frozen PBMC collected at week 6 post-infection (pre-ART), right before the first galunisertib administration (BC1), at the end of cycle 1 (AC1) and at the end of cycle 3 (AC3) were thawed in AIM V medium (ThermoFisher) with benzonase (Sigma) and plated on a FluoroSpot (CTL) plate pre-activated with 70% Ethanol and IFN-γ, TNF-α and IL-2 capture solution. Gag, pol, and env 15-mer peptides (NIH AIDS Reagents program) were prepared at two times the final concentration of 2.5 μg/ml with co-stimulatory reagents anti-CD28 10 μg/ml and anti-CD49d 10 μg/ml and added to the cells in CTL-Test™ Medium. Parallel positive […] control of PMA (20 ng/ml) and ionomycin (200 ng/mL) or mock DMSO solution was also plated with the stimulatory reagents. PBMCs were added at 300,000 cells per well. After 24 hrs, the plate was washed, and incubated with detection and tertiary solutions and shipped to CTL for scanning and QC."}}, "data": [{"smiles": "Cc1cccc(-c2nn3c(c2-c2ccnc4ccc(C(N)=O)cc24)CCC3)n1", "note": "[galunisertib, Galunisertib]", "values": [{"measurement": "frequency of p24-gag+ cells in unstimulated cultures", "setting": "U1 cells; U1 cells, no PMA, TGF-β1 10 ng/ml or galunisertib 1 μM alone", "value": "slightly increase"}, {"measurement": "frequency of p24-gag+ cells in the presence of exogenous TGF-β1", "setting": "U1 cells; U1 cells, TGF-β1 10 ng/ml + galunisertib 1 μM, with or without PMA", "value": "restores the frequency of p24-gag+ cells"}, {"measurement": "frequency of p24-gag+ cells in PMA-stimulated U1 cells", "setting": "U1 cells; galunisertib 1 μM alone, PMA 100 ng/ml", "value": "no impact"}, {"measurement": "concentration in blood of macaques lower than average concentration in human plasma after similar dosing", "setting": "[1]; macaque vs human plasma", "value": "at least 10 fold"}, {"measurement": "PK in rhesus macaques compared with humans", "setting": "[1]; naïve animals, oral 2.5 or 5 mg/kg", "value": "substantially lower than in humans"}, {"measurement": "increase in the titer of SIV-env specific antibodies", "setting": "SIV-env", "value": "0.5 to 1", "unit": "Log"}, {"measurement": "concentrations of inflammatory chemokines and cytokines in plasma", "setting": "[2]; before and after first 2 cycles and end of last cycle", "value": "no changes"}, {"measurement": "IL-10 in plasma", "setting": "[2]; end of the last cycle vs before treatment", "value": "small increase"}]}]}
